# Laboratory results reported in ChEMBL document CHEMBL1157124, “Synthesis and anticancer evaluation of alpha-lipoic acid derivatives” (Bioorg Med Chem Lett, 2010).
# Assays:
# CCRF S-180 [1] = assay: Antitumor activity against mouse S180 cells xenografted in ICR mouse assessed as reduction of tumor weight at 100 mg/kg, ig administered 2 days after tumor inoculation qd for 7 days; format: functional; details: route intragastric
# CCRF S-180 [2] = assay: animal or person; details: Mus musculus, CCRF S-180, po, read-out: INH
# Description: Antitumor activity against mouse S180 cells xenografted in ICR mouse assessed as inhibition of tumor weight at 100 mg/kg, ig administered 2 days after tumor inoculation qd for 7 days relative to control
# NCI-H460 [3] = assay: Cytotoxicity against human NCI-H460 cells assessed as growth inhibition at 0.1 ug/ml after 24 hrs by MTT assay; format: functional; details: NCI-H460, 24 h, read-out: GI
# [4] = Cytotoxicity against human HO8910 cells assessed as growth inhibition at 100 ug/ml after 24 hrs by MTT assay; format: functional; details: HO-8910, 24 h, read-out: GI
# [5] = Cytotoxicity against human HO8910 cells assessed as growth inhibition at 10 ug/ml after 24 hrs by MTT assay; format: functional; details: HO-8910, 24 h, read-out: GI
# [6] = Cytotoxicity against human HO8910 cells assessed as growth inhibition at 1 ug/ml after 24 hrs by MTT assay; format: functional; details: HO-8910, 24 h, read-out: GI
# KB [7] = assay: Cytotoxicity against human KB cells assessed as growth inhibition at 100 ug/ml after 24 hrs by MTT assay; format: functional; details: read-out: GI
# KB [8] = assay: Cytotoxicity against human KB cells assessed as growth inhibition at 10 ug/ml after 24 hrs by MTT assay; format: functional; details: read-out: GI
# KB [9] = assay: Cytotoxicity against human KB cells assessed as growth inhibition at 1 ug/ml after 24 hrs by MTT assay; format: functional; details: read-out: GI
# Bel-7402 [10] = assay: Cytotoxicity against human Bel7402 cells assessed as growth inhibition at 100 ug/ml after 24 hrs by MTT assay; format: functional; details: Bel-7402, 24 h, read-out: GI
# Bel-7402 [11] = assay: Cytotoxicity against human Bel7402 cells assessed as growth inhibition at 10 ug/ml after 24 hrs by MTT assay; format: functional; details: Bel-7402, 24 h, read-out: GI
# Bel-7402 [12] = assay: Cytotoxicity against human Bel7402 cells assessed as growth inhibition at 1 ug/ml after 24 hrs by MTT assay; format: functional; details: Bel-7402, 24 h, read-out: GI
# PC-3 [13] = assay: Cytotoxicity against human PC3 cells assessed as growth inhibition at 100 ug/ml after 24 hrs by MTT assay; format: functional; details: PC-3, 24 h, read-out: GI
# PC-3 [14] = assay: Cytotoxicity against human PC3 cells assessed as growth inhibition at 10 ug/ml after 24 hrs by MTT assay; format: functional; details: PC-3, 24 h, read-out: GI
# PC-3 [15] = assay: Cytotoxicity against human PC3 cells assessed as growth inhibition at 1 ug/ml after 24 hrs by MTT assay; format: functional; details: PC-3, 24 h, read-out: GI
# PC-3 [16] = assay: Cytotoxicity against human PC3 cells assessed as growth inhibition at 0.1 ug/ml after 24 hrs by MTT assay; format: functional; details: PC-3, 24 h, read-out: GI
# CCRF S-180 [17] = assay: Antitumor activity against mouse S180 cells xenografted in ICR mouse assessed as reduction of tumor weight at 200 mg/kg, ig administered 2 days after tumor inoculation qd for 7 days; format: functional; details: route intragastric
# CCRF S-180 [18] = assay: Antitumor activity against mouse S180 cells xenografted in ICR mouse assessed as inhibition of tumor weight at 200 mg/kg, ig administered 2 days after tumor inoculation qd for 7 days relative to control; format: functional; details: CCRF S-180, po, route intragastric
# CCRF S-180 [19] = assay: Cytotoxicity against mouse S180 cells assessed as growth inhibition at 100 ug/ml after 24 hrs by MTT assay; format: functional; details: CCRF S-180, 24 h
# CCRF S-180 [20] = assay: Cytotoxicity against mouse S180 cells assessed as growth inhibition at 10 ug/ml after 24 hrs by MTT assay; format: functional; details: CCRF S-180, 24 h
# CCRF S-180 [21] = assay: Cytotoxicity against mouse S180 cells assessed as growth inhibition at 1 ug/ml after 24 hrs by MTT assay; format: functional; details: CCRF S-180, 24 h
# CCRF S-180 [22] = assay: Cytotoxicity against mouse S180 cells assessed as growth inhibition at 0.1 ug/ml after 24 hrs by MTT assay; format: functional; details: CCRF S-180, 24 h
# Mus musculus [23] = assay: Acute toxicity in ICR mouse assessed as gross pathological changes at 1000 mg/kg, ig; format: organism-based; parameters: dose 1000 mg/kg, route intragastric; details: in vivo, po
# Mus musculus [24] = assay: Acute toxicity in ICR mouse assessed as mortality at 1000 mg/kg, ig; format: organism-based; parameters: dose 1000 mg/kg, route intragastric; details: in vivo, po
# [25] = Acute toxicity in ICR mouse; format: organism-based; details: in vivo
# Mus musculus [26] = assay: Acute toxicity in ICR mouse assessed as mortality at 100 mg/kg, ip qd for 4 days; format: organism-based; parameters: dose 100 mg/kg, route intraperitoneal; details: in vivo, 96 h
# Mus musculus [27] = assay: Acute toxicity in ICR mouse assessed as change in body weight at 100 mg/kg, ip qd for 4 days; format: organism-based; parameters: dose 100 mg/kg, route intraperitoneal; details: in vivo, 96 h
# Mus musculus [28] = assay: Acute toxicity in ICR mouse assessed as mortality at 200 mg/kg, ip qd for 9 days measured on day 11; format: organism-based; parameters: dose 200 mg/kg, route intraperitoneal; details: in vivo, 216 h
# NCI-H460 [29] = assay: Cytotoxicity against human NCI-H460 cells assessed as growth inhibition at 100 ug/ml after 24 hrs by MTT assay; format: functional; details: NCI-H460, 24 h, read-out: GI
# NCI-H460 [30] = assay: Cytotoxicity against human NCI-H460 cells assessed as growth inhibition at 10 ug/ml after 24 hrs by MTT assay; format: functional; details: NCI-H460, 24 h, read-out: GI
# NCI-H460 [31] = assay: Cytotoxicity against human NCI-H460 cells assessed as growth inhibition at 1 ug/ml after 24 hrs by MTT assay; format: functional; details: NCI-H460, 24 h, read-out: GI
smiles,measurement,setting,value
O=P1(N(CCCl)CCCl)NCCCO1 (configuration not stated) [CYCLOPHOSPHAMIDE ANHYDROUS],Activity,CCRF S-180 [1],0.39 g
same,inhibition in vivo at 100 mg/kg,CCRF S-180 [2],74.5%
O=C(CCCCC1CCSS1)Nc1ccc(Cl)cn1 (configuration not stated),inhibition of growth at 0.1 µg/mL,NCI-H460 [3],3.93%
same,inhibition of growth at 100 µg/mL,[4],68.5%
same,inhibition of growth at 10 µg/mL,[5],27.5%
same,inhibition of growth at 1 µg/mL,[6],2.1%
same,inhibition of growth at 100 µg/mL,KB [7],74.5%
same,inhibition of growth at 10 µg/mL,KB [8],28.6%
same,inhibition of growth at 1 µg/mL,KB [9],0.76%
same,inhibition of growth at 100 µg/mL,Bel-7402 [10],48.5%
same,inhibition of growth at 10 µg/mL,Bel-7402 [11],16.1%
same,inhibition of growth at 1 µg/mL,Bel-7402 [12],7.44%
same,inhibition of growth at 100 µg/mL,PC-3 [13],42.3%
same,inhibition of growth at 10 µg/mL,PC-3 [14],17.1%
same,inhibition of growth at 1 µg/mL,PC-3 [15],2%
same,inhibition of growth at 0.1 µg/mL,PC-3 [16],2.22%
same,Activity,CCRF S-180 [1],1.53 g
same,Activity,CCRF S-180 [17],1.15 g
same,inhibition in vivo at 200 mg/kg,CCRF S-180 [18],24.7%
same,inhibition at 100 µg/mL,CCRF S-180 [19],74.3%
same,inhibition at 10 µg/mL,CCRF S-180 [20],24.5%
same,inhibition at 1 µg/mL,CCRF S-180 [21],13%
same,inhibition at 0.1 µg/mL,CCRF S-180 [22],5.92%
same,Activity,Mus musculus [23],Non-toxic
same,Activity,Mus musculus [24],Non-toxic
same,LD50,[25],1000 mg/kg
same,Activity,Mus musculus [26],Non-toxic
same,Activity,Mus musculus [27],10%
same,Activity,Mus musculus [28],Toxic
same,inhibition of growth at 100 µg/mL,NCI-H460 [29],58.5%
same,inhibition of growth at 10 µg/mL,NCI-H460 [30],33.7%
same,inhibition of growth at 1 µg/mL,NCI-H460 [31],6.26%
